For 32 compounds, inhibition results are on record in EP2272817A1, “PAI-1 INHIBITOR” (Institute of Medicinal Molecular Design, Inc., priority 2008, dated 2009).

Molecules are shown by their SMILES. Read-outs that look alike come from different tables or passages of the source.

The target in assay [1] is T1, recombinant human PAI-1 (Homo sapiens, UniProt P05121). Kind of assay: Test Example 2: Human PAI-1 Inhibitory Activity (pH 7.4 HEPES buffer, 10 minutes incubation with two-chain tPA). Set-up: purchased Molecular Innovations, Inc. The conditions noted are these: read-out: Inhibition Rate of PAI-1 Activity (%). Type of assay: biochemical. On the procedure:
0.1 M HEPES, 0.1 M NaCl. 1 mM EDTA. 0.1 % Polyethylene glycol 8,000 (Hampton Research Corporation),
2 mM Dimethyldecylphoshine oxide [Apo-10] (Fluka Corporation)

The target in the next assay is T2, recombinant rat PAI-1 (Rattus norvegicus, UniProt P20961).
T2 sequence (P20961 24-402): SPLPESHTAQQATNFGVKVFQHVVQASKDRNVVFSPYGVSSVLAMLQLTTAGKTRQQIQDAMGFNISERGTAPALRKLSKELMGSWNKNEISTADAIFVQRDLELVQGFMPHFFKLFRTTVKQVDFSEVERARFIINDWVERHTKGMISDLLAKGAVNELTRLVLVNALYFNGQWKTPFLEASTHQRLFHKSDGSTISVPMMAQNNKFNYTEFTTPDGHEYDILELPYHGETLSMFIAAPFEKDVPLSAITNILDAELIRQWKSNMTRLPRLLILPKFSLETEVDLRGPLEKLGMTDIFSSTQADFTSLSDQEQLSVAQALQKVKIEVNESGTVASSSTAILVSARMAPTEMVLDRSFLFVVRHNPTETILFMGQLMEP
Kind of assay: biochemical. The settings on record: read-out: Inhibition Rate of PAI-1 Activity (%).

For assay [2], the target named is T1, recombinant human PAI-1. Kind of assay: biochemical.
Setting [3] is: read-out: Inhibition Rate of PAI-1 Activity (%), Compound Concentration 5µM.
Setting [4] is: read-out: Inhibition Rate of PAI-1 Activity (%), Compound Concentration 10µM.
Setting [5] is: read-out: Inhibition Rate of PAI-1 Activity (%), Compound Concentration 25µM.
Setting [6] is: read-out: Inhibition Rate of PAI-1 Activity (%).
Setting [7] is: read-out: Inhibition Rate of PAI Activity (%).

T1 sequence (P05121 24-402): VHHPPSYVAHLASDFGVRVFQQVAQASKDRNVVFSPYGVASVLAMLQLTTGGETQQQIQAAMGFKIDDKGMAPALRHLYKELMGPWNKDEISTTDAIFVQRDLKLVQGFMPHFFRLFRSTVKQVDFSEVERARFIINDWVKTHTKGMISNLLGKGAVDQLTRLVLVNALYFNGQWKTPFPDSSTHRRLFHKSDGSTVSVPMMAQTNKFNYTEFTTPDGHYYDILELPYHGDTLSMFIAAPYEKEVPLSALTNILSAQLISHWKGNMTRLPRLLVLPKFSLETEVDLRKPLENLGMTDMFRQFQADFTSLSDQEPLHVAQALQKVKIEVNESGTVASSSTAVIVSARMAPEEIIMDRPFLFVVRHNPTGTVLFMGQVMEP

As to `O=C(O)CCc1c(Oc2ccc(OC(F)(F)F)cc2)cccc1Oc1ccc(OC(F)(F)F)cc1` [Compound 98], at recombinant human PAI-1 [1], the inhibition at 0.1 µM is 0%, the inhibition at 0.3 µM came to 2%, the inhibition at 1 µM turned out to be 25% and the inhibition at 3 µM was found to be 84%. In addition, on recombinant rat PAI-1, the inhibition at 0.3 µM stood at 0%, the inhibition at 1 µM was 10%, the inhibition at 3 µM was 39% and the inhibition at 10 µM came to 95%. In addition, the inhibition at 5 µM on recombinant human PAI-1 [2] (setting [3]) turned out to be 57%. Moreover, the inhibition at 10 µM at recombinant human PAI-1 [2] (setting [4]) was 84%. Besides, the inhibition at 25 µM on recombinant human PAI-1 [2] (setting [5]) came out at 98%.
For `CC(C)(C)c1ccc(COc2c(CCC(=O)O)cccc2-c2ccc(OC(F)(F)F)cc2)cc1` [Compound 88], at recombinant human PAI-1 [1], the inhibition at 0.1 µM amounted to 0%, the inhibition at 0.3 µM is 5%, the inhibition at 1 µM worked out at 25% and the inhibition at 3 µM is 97%. In addition, on recombinant rat PAI-1, the inhibition at 0.3 µM came to 0%, the inhibition at 1 µM is 0%, the inhibition at 3 µM came out at 51% and the inhibition at 10 µM was determined as 83%. On recombinant human PAI-1 [2] (setting [6]), the inhibition at 5 µM turned out to be 42%, the inhibition at 10 µM worked out at 83% and the inhibition at 25 µM came out at 97%.
As for `CCN(CC)c1ccc(N(CCCc2ccccc2)C(=O)C(=O)O)c(-c2ccc(OC(F)(F)F)cc2)c1` [Compound 238], at recombinant human PAI-1 [1], the inhibition at 0.1 µM worked out at 0%, the inhibition at 0.3 µM stood at 0%, the inhibition at 1 µM amounted to 21% and the inhibition at 3 µM was found to be 87%. Also, at recombinant rat PAI-1, the inhibition at 0.3 µM was 0%, the inhibition at 1 µM was 8%, the inhibition at 3 µM was 46% and the inhibition at 10 µM worked out at 98%. For the same compound, the inhibition at 5 µM at recombinant human PAI-1 [2] (setting [3]) is 76%. Moreover, at recombinant human PAI-1 [2] (setting [4]), the inhibition at 10 µM worked out at 95%. Also, the inhibition at 25 µM at recombinant human PAI-1 [2] (setting [5]) amounted to 93%.
Take `O=C(O)CCc1cc(-c2ccc(OC(F)(F)F)cc2)ccc1OCc1ccc(-c2ccccc2)cc1` [Compound 29]: on recombinant human PAI-1 [2] (setting [7]), the inhibition at 5 µM worked out at 21%, the inhibition at 10 µM was 56% and the inhibition at 25 µM was determined as 88%.
Regarding `Cc1c(-c2ccc(OC(F)(F)F)cc2)cccc1N(Cc1ccc(C(C)(C)C)cc1)C(=O)C(=O)O` [Compound 177], on recombinant human PAI-1 [2] (setting [6]), the inhibition at 5 µM was 43%, the inhibition at 10 µM turned out to be 83% and the inhibition at 25 µM came out at 91%.
As to `Cc1ccc(CN(C(=O)C(=O)O)c2ccc(-c3ccc(OC(F)(F)F)cc3)cc2)cc1` [Compound 143], at recombinant human PAI-1 [2] (setting [6]), the inhibition at 10 µM is 1% and the inhibition at 25 µM is 22%.
As for `CC(C)Oc1ccc(N(Cc2ccc(C(C)(C)C)cc2)C(=O)C(=O)O)c(-c2ccc(OC(F)(F)F)cc2)c1` [Compound 209], at recombinant human PAI-1 [2] (setting [6]), the inhibition at 5 µM is 81%, the inhibition at 10 µM came to 98% and the inhibition at 25 µM came out at 94%.
As for `CC(C)(C)c1ccc(COc2ccc(-c3ccc(OC(F)(F)F)cc3)cc2OCCCC(=O)O)cc1` [Compound 109], at recombinant human PAI-1 [2] (setting [6]), the inhibition at 5 µM was found to be 24%, the inhibition at 10 µM came out at 50% and the inhibition at 25 µM was determined as 96%.
In the same order, the values of `Cc1ccc(-c2ccc(OC(F)(F)F)cc2)cc1N(Cc1ccc(C(C)(C)C)cc1)C(=O)C(=O)O` [Compound 136] are 16%, 47% and 79%.
For `CC(C)(OCc1ccc(-c2ccc(OC(F)(F)F)cc2)cc1Oc1ccc(C(C)(C)C)cc1)C(=O)O` [Compound 111], in that order: 55%, 88% and 94%.
`CC(C)(C)c1ccc(CN(C(=O)C(=O)O)c2ccc(-c3cccc([N+](=O)[O-])c3)cc2)cc1` [Compound 142]: at recombinant human PAI-1 [2] (setting [6]), the inhibition at 10 µM was determined as 3% and the inhibition at 25 µM came to 33%.
Regarding `CC(C)(C)c1ccc(CN(C(=O)C(=O)O)c2ccc(C(F)(F)F)cc2-c2ccc(OC(F)(F)F)cc2)cc1` [Compound 169], at recombinant human PAI-1 [2] (setting [6]), the inhibition at 5 µM came out at 59%, the inhibition at 10 µM was found to be 91% and the inhibition at 25 µM was determined as 84%.
In the case of `CC(C)(C)c1ccc(COc2cc(-c3ccc(OC(F)(F)F)cc3)cc(O)c2OCC(=O)O)cc1` [Compound 546], on recombinant human PAI-1 [2] (setting [6]), the inhibition at 0.5 µM came to 4%, the inhibition at 1 µM is 14% and the inhibition at 5 µM is 61%.
Take `Cc1cccc(CN(C(=O)C(=O)O)c2ccc(-c3ccc(OC(F)(F)F)cc3)cc2)c1` [Compound 125]: at recombinant human PAI-1 [2] (setting [6]), the inhibition at 5 µM stood at 15% and the inhibition at 10 µM was 31%.
As for `CC(C)c1ccc(Oc2ccc(/C=C\C(=O)O)c(Oc3ccc(C(C)C)cc3)c2)cc1` [Compound 74], at recombinant human PAI-1 [2] (setting [6]), the inhibition at 5 µM amounted to 13%, the inhibition at 10 µM is 53% and the inhibition at 25 µM came out at 96%.
For `CN(C(=O)C(=O)O)c1ccc(OCc2ccc(OC(F)(F)F)cc2)c(OCc2ccc(OC(F)(F)F)cc2)c1` [Compound 623], in that order: 22%, 41% and 87%.
For `COc1ccc(-c2ccc(OC(F)(F)F)cc2)cc1N(Cc1ccc(C(C)(C)C)cc1)C(=O)C(=O)O` [Compound 182], at recombinant human PAI-1 [2] (setting [6]), the inhibition at 5 µM worked out at 56%, the inhibition at 10 µM was found to be 85% and the inhibition at 25 µM worked out at 89%.
In the case of `CC(C)(Oc1c(Oc2ccc(C(C)(C)C)cc2)cccc1-c1ccc(OC(F)(F)F)cc1)C(=O)O` [Compound 251], at recombinant human PAI-1 [1], the inhibition at 0.1 µM is 0%, the inhibition at 0.3 µM was determined as 11%, the inhibition at 1 µM worked out at 34% and the inhibition at 3 µM was found to be 83%. Further, the inhibition at 5 µM on recombinant human PAI-1 [2] (setting [3]) turned out to be 62%. Moreover, the inhibition at 10 µM at recombinant human PAI-1 [2] (setting [4]) came out at 63%.
Regarding `CCC(CC)Oc1ccc(N(Cc2ccc(C(C)(C)C)cc2)C(=O)C(=O)O)c(-c2ccc(OC(F)(F)F)cc2)c1` [Compound 207], at recombinant human PAI-1 [2] (setting [6]), the inhibition at 5 µM came out at 79% and the inhibition at 10 µM was determined as 90%.
Turning to `O=C(O)CCc1cc(-c2ccc(OC(F)(F)F)cc2)ccc1OCc1ccc(F)cc1` [Compound 20], at recombinant human PAI-1 [2] (setting [7]), the inhibition at 10 µM was 10% and the inhibition at 25 µM amounted to 53%.
For the compound `CC(C)(C)c1ccc(COc2c(Cl)cc(-c3ccc(OC(F)(F)F)cc3)cc2/C=C/C(=O)O)cc1` [Compound 91], at recombinant human PAI-1 [2] (setting [6]), the inhibition at 5 µM was found to be 30%, the inhibition at 10 µM worked out at 67% and the inhibition at 25 µM was 96%.
For `CC(C)(C)c1ccc(COc2ccc(-c3ccc(OC(F)(F)F)cc3)cc2OCc2nn[nH]n2)cc1` [Compound 122], in that order: 29%, 63% and 99%.
For `CC(C)(C)c1ccc(-c2ccc(Oc3ccc(-c4ccc(OC(F)(F)F)cc4)cc3CCC(=O)O)c(CCC(=O)O)c2)cc1` [Compound 541], in that order: 77%, 93% and > 99%.
In the same order, the values of `O=C(O)C(=O)N(CCCCc1ccccc1)c1ccc(N2CCOCC2)c(-c2ccc(OC(F)(F)F)cc2)c1` [Compound 243] are 42%, 64% and 89%.
Consider `O=C(O)CCc1cc(-c2ccc(OC(F)(F)F)cc2)ccc1Oc1ccc(OC(F)(F)F)cc1` [Compound 16], for which, at recombinant human PAI-1 [2] (setting [7]), the inhibition at 5 µM was 23%, the inhibition at 10 µM was 46% and the inhibition at 25 µM stood at 96%.
`CC(C)Oc1ccc(N(CCCCc2ccccc2)C(=O)C(=O)O)cc1-c1ccc(OC(F)(F)F)cc1` [Compound 248]: at recombinant human PAI-1 [2] (setting [6]), the inhibition at 5 µM came out at 60%, the inhibition at 10 µM worked out at 89% and the inhibition at 25 µM was determined as 96%.
For `O=C(O)C(=O)N(Cc1ccc(F)cc1)c1ccc(-c2ccc(OC(F)(F)F)cc2)cc1` [Compound 155], in that order: 7%, 15% and 38%.
For `CCCCCCN(C(=O)C(=O)O)c1ccc(Oc2ccc(OC(F)(F)F)cc2)cc1` [Compound 252], in that order: 3%, 6% and 34%.
For `O=C(O)CCc1cc(-c2ccc(OC(F)(F)F)cc2)ccc1OCc1cccc(C(F)(F)F)c1` [Compound 58], at recombinant human PAI-1 [2] (setting [7]), the inhibition at 5 µM came to 22%, the inhibition at 10 µM was determined as 53% and the inhibition at 25 µM was 97%.
As for `CC(C)(Nc1cc(-c2ccc(OC(F)(F)F)cc2)ccc1OCc1ccc(C(C)(C)C)cc1)C(=O)O` [Compound 420], at recombinant human PAI-1 [2] (setting [6]), the inhibition at 5 µM turned out to be 42%, the inhibition at 10 µM was 64% and the inhibition at 25 µM was determined as 83%.
In the same order, the values of `CCC(Oc1ccc(-c2ccc(OC(F)(F)F)cc2)cc1Oc1ccc(C(C)(C)C)cc1)C(=O)O` (stereo not shown) [Compound 114] are 64%, 87% and 95%.
For `O=C(O)C(=O)N(CCCc1ccccc1)c1ccc(-c2ccc(OC(F)(F)F)cc2)cc1` [Compound 224], in that order: 29%, 53% and 86%.
